Measured values reported in US12011444B2, “N-substituted indole derivatives as PGE2 receptor modulators” (Idorsia Pharmaceuticals Ltd, priority 2015, dated 2024).
pIC50: −log10 of the molar value.

Legend:
PTGER2 (EP2) = PTGER2 (EP2) (Homo sapiens (Human), UniProt P43116); assay: hEP2 b-arrestin assay (PathHunter HEK 293 PTGER2 b-arrestin cells); type: cell-based
Excerpt: (§1) The assay is using the PathHunter™ HEK 293 PTGER2 and PTGER4 b-arrestin cell lines from DiscoverX. The system is based on the Enzyme Fragment Complementation Technology. Two complementing fragments of the b-galactosidase enzyme are expressed within stably transfected cells. The larger portion of b-gal, termed EA for Enzyme Acceptor, is fused to the C-terminus of b-arrestin 2. The smaller fragment, termed ProLink™ tag, is fused to PTGER2 (EP2) or PTRGER4 (EP4) at the C-terminus. Upon activation, b-arrestin is recruited which forces the interaction of ProLink and EA, allowing complementation of the two fragments of b-gal and the formation of a functional enzyme which is capable of hydrolysing the substrate and generating a chemiluminescent signal.
(§2) 5000 cells per well of a 384 well plate (white with white bottom Greiner 781080) are seeded in 20 ul per well of GM. Plate is incubated at 37° C., 5% C02 for 24 hours.
Plate is pre-incubated 15 minutes at 37° C. Then five microliters of PGE2 (final conc. 5 μM) are transferred into the assay plate. Plate is incubated 120 minutes at 37° C.
(§3) Twelve μl of reagent are transferred to the assay plate and incubate for 1 hour at room temperature in the dark. Luminescence counts are read on a BMG Fluostar Optima reader according to manufacturer's instructions. For each compound concentration calculate of the percentage of activity compared to DMSO control value as average±STDEV. (each concentration is measured in duplicate)

PTRGER4 (EP4) = PTRGER4 (EP4) (Homo sapiens (Human), UniProt P35408); assay: hEP4 b-arrestin assay (PathHunter HEK 293 PTGER4 b-arrestin cells); type: cell-based
Sequence of PTRGER4 (EP4) (P35408 whole entry, looked up): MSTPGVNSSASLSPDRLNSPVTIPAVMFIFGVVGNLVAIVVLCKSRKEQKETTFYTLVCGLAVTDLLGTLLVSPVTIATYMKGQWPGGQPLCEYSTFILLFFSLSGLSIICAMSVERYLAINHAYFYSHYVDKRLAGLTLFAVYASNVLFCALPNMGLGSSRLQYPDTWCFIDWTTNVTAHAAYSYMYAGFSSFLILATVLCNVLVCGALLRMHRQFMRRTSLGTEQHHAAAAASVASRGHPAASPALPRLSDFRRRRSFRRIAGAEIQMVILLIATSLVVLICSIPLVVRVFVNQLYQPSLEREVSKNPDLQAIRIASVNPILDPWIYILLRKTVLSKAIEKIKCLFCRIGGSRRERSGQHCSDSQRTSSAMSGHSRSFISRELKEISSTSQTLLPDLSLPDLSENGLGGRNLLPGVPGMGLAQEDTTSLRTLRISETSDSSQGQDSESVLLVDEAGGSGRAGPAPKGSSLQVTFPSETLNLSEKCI
Excerpt: as §1, §2
Plate is pre-incubated 15 minutes at 37° C. Then five microliters of PGE2 (final conc. 20 nM) are transferred into the assay plate. Plate is incubated 120 minutes at 37° C.
as §3, with “average±STDEV.” for “average±STDEV. (each concentration is measured in duplicate)”

[1] = hEP2 b-arrestin assay (values without asterisk)
[2] = hEP4 b-arrestin assay (values without asterisk)
[3] = antagonistic activity on hEP2, mean where measured multiple times
[4] = antagonistic activity on hEP4, mean where measured multiple times

Sequence of PTGER2 (EP2) (P43116 whole entry, the tested form may be a part): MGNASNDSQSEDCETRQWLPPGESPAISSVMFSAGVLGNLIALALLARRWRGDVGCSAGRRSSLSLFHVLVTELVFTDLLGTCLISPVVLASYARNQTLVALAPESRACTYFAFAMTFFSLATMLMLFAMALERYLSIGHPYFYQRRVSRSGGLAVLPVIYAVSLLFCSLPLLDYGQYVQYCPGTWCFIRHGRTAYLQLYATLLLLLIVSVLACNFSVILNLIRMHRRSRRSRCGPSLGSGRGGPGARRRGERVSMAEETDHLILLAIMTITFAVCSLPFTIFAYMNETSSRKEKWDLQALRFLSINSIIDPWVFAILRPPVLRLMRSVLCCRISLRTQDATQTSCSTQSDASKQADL

pIC50 (PTGER2 (EP2); [1])	pIC50 (PTRGER4 (EP4); [2])	pIC50 (PTGER2 (EP2); [3])	pIC50 (PTRGER4 (EP4); [4])	SMILES
		8.30	7.32	CNc1cc(-c2cc(NCCn3c(C)cc4c(C)ccc(F)c43)ncn2)ccc1C(=O)O [compound 136, 4-{6-[2-(7-Fluoro-2,4-dimethyl-indol-1-yl)-ethylamino]-pyrimidin-4-yl}-2-methylamino-benzoic acid]
		8.22	6.00	CCOc1cc(-c2cc(NCCn3c(C)cc4c(F)c(F)cc(Cl)c43)ncn2)ccc1C(=O)O [compound 350, 4-{6-[2-(7-Chloro-4,5-difluoro-2-methyl-indol-1-yl)-ethylamino]-pyrimidin-4-yl}-2-ethoxy-benzoic acid]
		7.20	6.44	Cc1ccc(Cl)c2c1cc(C)n2CCNc1cc(-c2ccc(C(=O)O)c(SCC(C)C)c2)ncn1 [compound 368]
		7.51	6.57	COc1cc(-c2cc(NCCn3c(C)cc4c(C)ccc(F)c43)ncn2)cc(C)c1C(=O)O [compound 286]
		6.85	6.22	Cc1c(F)cc2c(cc(C)n2CCNc2cc(-c3ccc(C(=O)O)c(CC(C)C)c3)ncn2)c1F [compound 102]
		7.49	6.12	CCN1Cc2cc(-c3cc(NCCn4c(C)cc5c(OC)cccc54)ncn3)ccc2C1=O [compound 197, 2-Ethyl-5-{6-[2-(4-methoxy-2-methyl-indol-1-yl)-ethylamino]-pyrimidin-4-yl}-2,3-dihydro-isoindol-1-one]
		8.40	6.63	COc1cccc2c1cc(C)n2CCNc1cc(-c2ccc(-c3nc(N)sc3C)cc2)ncn1 [compound 311, {6-[4-(2-Amino-5-methyl-thiazol-4-yl)-phenyl]-pyrimidin-4-yl}-[2-(4-methoxy-2-methyl-indol-1-yl)-ethyl]-amine]
		7.82	6.77	COc1cc(F)cc2c1cc(C)n2CCNc1cc(-c2ccc(-c3ncno3)cc2)ncn1 [compound 184, [2-(6-Fluoro-4-methoxy-2-methyl-indol-1-yl)-ethyl]-[6-(4-[1,2,4]oxadiazol-5-yl-phenyl)-pyrimidin-4-yl]-amine]
		7.27	6.27	COc1ccc(F)c2c1cc(C)n2CCNc1cc(-c2ccc(S(N)(=O)=O)c(Cl)c2)ncn1 [compound 172]
		8.05	6.00	CCOc1cc(-c2cc(NCCn3c(C)cc4c(F)c(F)ccc43)ncn2)ccc1C(=O)O [compound 278]
		9.00	6.20	CCOc1cc(-c2cc(NCCn3c(C)cc4c(F)ccc(F)c43)ncn2)ccc1C(=O)O [compound 154, 4-{6-[2-(4,7-Difluoro-2-methyl-indol-1-yl)-ethylamino]-pyrimidin-4-yl}-2-ethoxy-benzoic acid]

Second part, the compound before the results:

SMILES	pIC50 (PTGER2 (EP2); [1])	pIC50 (PTRGER4 (EP4); [2])	pIC50 (PTGER2 (EP2); [3])	pIC50 (PTRGER4 (EP4); [4])
N#Cc1cc2c(Cl)cccc2n1CCNc1cc(-c2cc(C(F)(F)F)c(C(=O)O)s2)ncn1 [Example 911, 5-{6-[2-(4-Chloro-2-cyano-indol-1-yl)-ethylamino]-pyrimidin-4-yl}-3-trifluoromethyl-thiophene-2-carboxylic acid]	8.15	7.57		
CCOc1cc(-c2cc(NCCn3c(C)cc4c(OC)ccc(F)c43)ncn2)sc1C(=O)NS(C)(=O)=O [Example 1022, N-(3-Ethoxy-5-{6-[2-(7-fluoro-4-methoxy-2-methyl-indol-1-yl)-ethylamino]-pyrimidin-4-yl}-thiophene-2-carbonyl)-methanesulfonamide]	8.40	7.74		
Cc1cc2c(Cl)cc(Cl)cc2n1CCNc1cc(-c2cc(Cl)c(C(=O)O)s2)ncn1 [compound 44]			8.30	6.62
[2H]C([2H])(Nc1cc(-c2cc(Cl)c(C(=O)O)c(OCCCC)c2)ncn1)C([2H])([2H])n1c(C)cc2c(OC)ccc(F)c21 [Example 836, 2-butoxy-6-chloro-4-(6-((2-(7-fluoro-4-methoxy-2-methyl-1H-indol-1-yl)ethyl-1,1,2,2-d4)amino)pyrimidin-4-yl)benzoic acid]	8.15	7.49		
COc1ccc(F)c2c1cc(C)n2CCNc1cc(-c2ccc3nc(C)oc3c2)ncn1 [compound 89]			6.94	6.88
CCSc1cc(-c2cc(NCCn3c(C#N)cc4c(C)ccc(F)c43)ncn2)ccc1C(=O)O [Example 951, 4-{6-[2-(2-Cyano-7-fluoro-4-methyl-indol-1-yl)-ethylamino]-pyrimidin-4-yl}-2-ethylsulfanyl-benzoic acid]	7.82	7.57		
CCOc1cc(-c2cc(NCCn3c(C#N)cc4c(OC)cccc43)ncn2)sc1C(=O)O [Example 813, 5-{6-[2-(2-Cyano-4-methoxy-indol-1-yl)-ethylamino]-pyrimidin-4-yl}-3-ethoxy-thiophene-2-carboxylic acid]	8.70	8.52		
Cc1cc(F)cc2c1cc(C)n2CCNc1cc(-c2ccc(-c3ccon3)cc2)ncn1 [compound 94, [2-(6-Fluoro-2,4-dimethyl-indol-1-yl)-ethyl]-[6-(4-isoxazol-3-yl-phenyl)-pyrimidin-4-yl]-amine]			7.52	6.52
CCOc1cc(-c2cc(NCCn3c(C#N)cc4c(OC)ccc(F)c43)ncn2)sc1C(=O)NS(=O)(=O)C(C)C [Example 815, Propane-2-sulfonic acid (5-{6-[2-(2-cyano-7-fluoro-4-methoxy-indol-1-yl)-ethylamino]-pyrimidin-4-yl}-3-ethoxy-thiophene-2-carbonyl)-amide]	8.10	8.15		
COc1ccc(F)c2c1cc(C#N)n2CCNc1cc(-c2ccnc(C(F)(F)F)c2)ncn1 [Example 1007, 7-Fluoro-4-methoxy-1-{2-[6-(2-trifluoromethyl-pyridin-4-yl)-pyrimidin-4-ylamino]-ethyl}-1H-indole-2-carbonitrile]	7.62	7.17		
CCOc1cc(-c2cc(NCCn3c(C#N)cc4c(C)c(F)c(F)cc43)ncn2)ccc1OCC(=O)O [Example 893, (4-{6-[2-(2-Cyano-5,6-difluoro-4-methyl-indol-1-yl)-ethylamino]-pyrimidin-4-yl}-2-ethoxy-phenoxy)-acetic acid]	7.38	6.93		
CCCC(=O)OCOC(=O)c1sc(-c2cc(NCCn3c(C#N)cc4c(OC)ccc(F)c43)ncn2)cc1OCC [Example 1045, 5-{6-[2-(2-Cyano-7-fluoro-4-methoxy-indol-1-yl)-ethylamino]-pyrimidin-4-yl}-3-ethoxy-thiophene-2-carboxylic acid butyryloxymethyl ester]	7.80	8.40		
COc1ccc(F)c2c1cc(C#N)n2CCNc1cc(-c2cc3cc(C(=O)O)ccc3[nH]2)ncn1 [Example 960, 2-{6-[2-(2-Cyano-7-fluoro-4-methoxy-indol-1-yl)-ethylamino]-pyrimidin-4-yl}-1H-indole-5-carboxylic acid]	8.05	8.40		
CCOc1cc(-c2cc(NCCn3c(C#N)cc4c(OC)ccc(F)c43)ncn2)ccc1C(=O)C(=O)O [Example 934, (4-{6-[2-(2-Cyano-7-fluoro-4-methoxy-indol-1-yl)-ethylamino]-pyrimidin-4-yl}-2-ethoxy-phenyl)-oxo-acetic acid]	7.80	7.51		
CCOc1cc(-c2cc(NCC(C)n3c(C)cc4c(OC)ccc(F)c43)ncn2)sc1C(=O)O (racemic) [Example 796, rac-3-Ethoxy-5-{6-[2-(7-fluoro-4-methoxy-2-methyl-indol-1-yl)-propylamino]-pyrimidin-4-yl}-thiophene-2-carboxylic acid]	7.32	6.88		
Cc1ccc(F)c2c1cc(C)n2CCNc1cc(-c2ccc3c(c2)C(C)NC3=O)ncn1 (racemic) [compound 96]			7.77	6.24
COc1ccc(F)c2c1cc(C)n2CCNc1cc(-c2ccc(C(=O)O)c(C#N)c2)ncn1 [Example 888, 2-Cyano-4-{6-[2-(7-fluoro-4-methoxy-2-methyl-indol-1-yl)-ethylamino]-pyrimidin-4-yl}-benzoic acid]	7.39	6.33		
COc1cccc2c1cc(C)n2CCNc1cc(-c2ccc(-c3nnc[nH]3)cc2)ncn1 [compound 100, [2-(4-Methoxy-2-methyl-indol-1-yl)-ethyl]-{6-[4-(4H-[1,2,4]triazol-3-yl)-phenyl]-pyrimidin-4-yl}-amine]			7.96	6.69
CCSc1cc(-c2cc(NCCn3c(C)cc4ccccc43)ncn2)ccc1C(=O)O [compound 33, 2-Ethylsulfanyl-4-{6-[2-(2-methyl-indol-1-yl)-ethylamino]-pyrimidin-4-yl}-benzoic acid]			8.52	6.17
COc1ccc(F)c2c1cc(C#N)n2CCNc1cc(-c2ccnc(C3CC3)c2)ncn1 [Example 986, 1-{2-[6-(2-Cyclopropyl-pyridin-4-yl)-pyrimidin-4-ylamino]-ethyl}-7-fluoro-4-methoxy-1H-indole-2-carbonitrile]	8.05	7.18		
